{
  "source": "patent US12427151B2",
  "about": "“Compositions and method of treating cancer” (The Regents of the University of California, priority 2017, dated 2025)",
  "key": {"S. hominis ATCC27844": {"system": "S. hominis ATCC27844", "test": "MBC determination", "assay_type": "cell-based", "settings": "Staphylococcus hominis, 3-log reduction, 24 hour, 37° C., half strength MHB in PBS", "method": "(§1) To determine MBC, bacteria were cultured in TSB (Staphylococcus), THB (Streptococcus) or Nutrient broth (P. aeruginosa and E. coli) by reaching exponential phase (OD600=0.5-0.8). […] After incubation, the number of viable bacteria was measured by counting CFU after spreading 10-fold serial dilutions of bacteria on suitable agar plates. MBC was determined as a 3-log reduction (99.9%) of viable bacteria after 24 hour incubation.\n(§2) Antimicrobial activity of 6-HAP in vitro. To examine the specificity of 6-HAP for various bacteria, minimal bactericidal concentrations (MBCs) were determined according to dose-dependent killing curves at 24 hrs of incubation in vitro (Table 1). 6-HAP killed or suppressed growth of several major skin pathogens including GAS (NZ131), group B Streptococcus (GBS) (DK23), methicillin-sensitive S. aureus (ATCC35556), methicillin-resistant S. aureus (MRSA) strains (USA300 and Sanger252), Pseudomonas aeruginosa (P. aeruginosa) (ATCC14213) in vitro. […] S. epidermidis (ATCC12228) was also resistant to 6-HAP."}, "E. coli ATCC25922": {"system": "E. coli ATCC25922", "test": "MBC determination", "assay_type": "cell-based", "settings": "Escherichia coli, 3-log reduction, 24 hour, 37° C., half strength MHB in PBS", "method": "as §1, §2"}, "P. aeruginosa ATCC14213": {"system": "P. aeruginosa ATCC14213", "test": "MBC determination", "assay_type": "cell-based", "settings": "Pseudomonas aeruginosa, 3-log reduction, 24 hour, 37° C., half strength MHB in PBS", "method": "as §1, §2"}, "S. aureus ATCC35556": {"system": "S. aureus ATCC35556", "test": "MBC determination", "assay_type": "cell-based", "settings": "Staphylococcus aureus, 3-log reduction, 24 hour, 37° C., half strength MHB in PBS", "method": "as §1, §2"}, "S. epidermidis ATCC12228": {"system": "S. epidermidis ATCC12228", "test": "MBC determination", "assay_type": "cell-based", "settings": "Staphylococcus epidermidis, 3-log reduction, 24 hour, 37° C., half strength MHB in PBS", "method": "as §1, §2"}, "B16F10 melanoma": {"system": "B16F10 melanoma", "test": "In vivo tumor growth assay", "design": "species or system C57BL6 mice", "settings": "intravenous 20 mg/kg every 48 hrs for 2 weeks", "method": "(a-c) Effect of a single intravascular injection of 6-HAP on skin infection by GAS. The size of the infected lesion was measured by Image-J software (a). Representative images of infected skin (arrow) of mouse treated with 6-HAP or vehicle at Day-1 and Day-3 post infection are shown in (b). Infected skin was removed 24 and 72 hrs after bacterial injection and homogenized in PBS (c). CFUs were enumerated by plating serial dilutions of the homogenate on an agar plate. The data represent mean±SE of eight individual experiments (*P<0.05 and **P<0.01 by Student's t-test vs vehicle control). (d-e) Effect of repeated intravascular administrations with 6-HAP on growth of melanoma in mice. The data represent mean±SE of 10 individual experiments (*P<0.05, **P<0.01 and ***P<0.001 by Student's t-test vs vehicle control) (d). Representative images of tumor (broken line) in mouse treated with 6-HAP or vehicle at Day-9 and Day-13 are shown in (e).\nIn vivo tumor growth assay. B16F10 were suspended in sterile PBS. Shaved mouse dorsal skin was intradermally injected with 3×10^5 cells/50 μL. The C57BL6 mice were subsequently injected with 6-HAP dissolved in 2.5% DMSO/0.9% NaCl solution (40 mg/mL) at the dose of 20 mg/kg mouse via intravascular route every 48 hrs for 2 weeks. […] Tumor size was measured as the two perpendicular diameters with a caliper and volume was estimated by a formula, width^2×length/2. […]"}},
  "data": [
    {"smiles": "ONc1ncnc2nc[nH]c12", "note": "[6-HAP, 6-N-hydroxyaminopurine]", "values": [
      {"measurement": "MBC", "setting": "S. hominis ATCC27844", "result": 12.5, "unit": "µg/mL"},
      {"measurement": "MBC", "setting": "E. coli ATCC25922", "result": 50, "unit": "µg/mL"},
      {"measurement": "MBC", "setting": "P. aeruginosa ATCC14213", "result": 1.56, "unit": "µg/mL"},
      {"measurement": "MBC", "setting": "S. aureus ATCC35556", "result": 6.25, "unit": "µg/mL"},
      {"measurement": "MBC", "setting": "S. epidermidis ATCC12228", "result": "> 50", "unit": "µg/mL"},
      {"measurement": "tumor size suppression compared to vehicle", "setting": "B16F10 melanoma", "result": "> 60", "unit": "%"}
    ]}
  ]
}
